Results taken from PubChem BioAssay AID602354 (The Scripps Research Institute Molecular Screening Center, 2012).

How the values were obtained:
[1] = biological target: Diacylglycerol lipase-beta (Mus musculus) (UniProt Q91WC9); assay: DAGLb inhibition in intact mouse cells, late-stage follow-up, cell-based, gel-based competitive ABPP, fluorescence, in situ, dose response (AID 602354); settings: DAGLb
[2] = biological target: Monoacylglycerol lipase ABHD6 (Mus musculus) (UniProt Q8R2Y0); assay: as above
Chain of Monoacylglycerol lipase ABHD6 (Mus musculus) (Q8R2Y0 whole entry, looked up): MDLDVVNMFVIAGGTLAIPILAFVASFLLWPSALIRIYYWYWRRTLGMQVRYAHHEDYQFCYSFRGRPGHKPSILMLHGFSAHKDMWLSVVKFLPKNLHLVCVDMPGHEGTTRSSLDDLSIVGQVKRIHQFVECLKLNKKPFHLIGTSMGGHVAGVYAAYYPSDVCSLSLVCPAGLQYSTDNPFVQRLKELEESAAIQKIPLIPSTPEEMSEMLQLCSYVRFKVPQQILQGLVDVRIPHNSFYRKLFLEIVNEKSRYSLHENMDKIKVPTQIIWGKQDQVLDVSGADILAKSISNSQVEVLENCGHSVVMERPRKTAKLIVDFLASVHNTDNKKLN

Chain of Diacylglycerol lipase-beta (Mus musculus) (Q91WC9 whole entry, looked up): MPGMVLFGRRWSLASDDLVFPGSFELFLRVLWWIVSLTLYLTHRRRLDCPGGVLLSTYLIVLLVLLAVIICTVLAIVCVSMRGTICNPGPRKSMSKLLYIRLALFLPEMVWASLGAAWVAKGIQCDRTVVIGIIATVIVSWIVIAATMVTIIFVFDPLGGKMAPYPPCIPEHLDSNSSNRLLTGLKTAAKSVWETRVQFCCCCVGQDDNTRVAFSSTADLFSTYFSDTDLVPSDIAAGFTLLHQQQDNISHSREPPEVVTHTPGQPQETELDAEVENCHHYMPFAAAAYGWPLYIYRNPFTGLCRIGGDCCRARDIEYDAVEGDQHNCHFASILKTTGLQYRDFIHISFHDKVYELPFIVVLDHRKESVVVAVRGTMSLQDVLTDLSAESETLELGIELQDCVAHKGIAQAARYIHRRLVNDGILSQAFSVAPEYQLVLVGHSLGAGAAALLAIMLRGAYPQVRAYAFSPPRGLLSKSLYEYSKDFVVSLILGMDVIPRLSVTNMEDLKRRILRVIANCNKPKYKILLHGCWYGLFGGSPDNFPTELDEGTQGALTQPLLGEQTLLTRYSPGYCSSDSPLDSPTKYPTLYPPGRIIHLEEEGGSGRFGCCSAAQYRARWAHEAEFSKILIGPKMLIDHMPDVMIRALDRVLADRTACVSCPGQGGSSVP

Structure (SMILES) | IC50 [1] | IC50 [2]
O=C(N1CCCCC1Cc1ccccc1)n1cc(-c2ccc(-c3ccccc3)cc2)nn1 (centres undefined) | 16 nM | 0.46 nM
COc1ccccc1-c1ccc(-c2cn(C(=O)N3CCCCC3Cc3ccccc3)nn2)cc1 (centres undefined) | 12 nM | 0.48 nM
